Marks after values point to notes of the source that are not given here.
Biological target: hERG (human ether-a-go-go-related gene) potassium channel (Homo sapiens, UniProt Q12809)
Assay: QPatch automated patch-clamp hERG activator 4-concentration EC50 assay
Conditions: increase of hERG tail current amplitude at 7 second (TL7); 3.3 uM (footnote *); hERG stably expressed in CHO cells

Chain of hERG (human ether-a-go-go-related gene) potassium channel (Q12809 whole entry): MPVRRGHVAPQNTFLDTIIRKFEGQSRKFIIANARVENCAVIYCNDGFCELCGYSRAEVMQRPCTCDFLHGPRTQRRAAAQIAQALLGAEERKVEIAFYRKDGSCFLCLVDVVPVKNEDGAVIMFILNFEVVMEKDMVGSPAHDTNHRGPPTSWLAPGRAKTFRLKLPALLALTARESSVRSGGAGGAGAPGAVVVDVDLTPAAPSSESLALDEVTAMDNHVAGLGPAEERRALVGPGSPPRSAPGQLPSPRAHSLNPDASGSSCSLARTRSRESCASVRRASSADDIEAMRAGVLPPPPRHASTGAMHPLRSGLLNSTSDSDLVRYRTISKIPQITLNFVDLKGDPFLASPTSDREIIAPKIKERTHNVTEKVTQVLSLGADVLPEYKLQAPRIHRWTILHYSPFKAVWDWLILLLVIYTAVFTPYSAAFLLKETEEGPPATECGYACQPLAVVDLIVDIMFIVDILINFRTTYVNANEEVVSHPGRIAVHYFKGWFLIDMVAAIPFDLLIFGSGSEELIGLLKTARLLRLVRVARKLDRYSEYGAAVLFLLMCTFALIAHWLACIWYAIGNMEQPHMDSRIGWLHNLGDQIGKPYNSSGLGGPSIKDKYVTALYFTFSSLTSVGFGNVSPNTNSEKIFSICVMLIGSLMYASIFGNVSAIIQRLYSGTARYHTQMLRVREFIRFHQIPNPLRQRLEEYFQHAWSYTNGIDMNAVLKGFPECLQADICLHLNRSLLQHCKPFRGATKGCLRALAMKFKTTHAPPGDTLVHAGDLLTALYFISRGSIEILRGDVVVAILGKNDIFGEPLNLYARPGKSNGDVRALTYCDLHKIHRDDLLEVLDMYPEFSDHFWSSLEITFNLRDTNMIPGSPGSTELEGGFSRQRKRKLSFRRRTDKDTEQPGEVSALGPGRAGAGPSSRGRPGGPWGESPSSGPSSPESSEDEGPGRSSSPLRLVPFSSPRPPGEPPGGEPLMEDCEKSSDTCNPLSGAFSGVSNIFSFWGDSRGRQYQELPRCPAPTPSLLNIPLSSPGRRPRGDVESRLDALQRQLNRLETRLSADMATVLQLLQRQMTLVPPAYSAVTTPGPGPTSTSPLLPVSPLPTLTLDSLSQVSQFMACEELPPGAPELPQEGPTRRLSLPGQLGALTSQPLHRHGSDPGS

Row | SMILES | % change@TL7 (*@3.3 uM)
1 | Fc1cc2cc(-c3nnn[nH]3)oc2cc1CNc1ccc(C(F)(F)F)c(Br)c1 [Example 177] | 215* %
2 | FC(F)(F)c1ccc(NCc2ccc3cc(-c4nn[nH]n4)oc3c2)cc1Br [Example 3] | 121* %

Same assay, conditions: increase of hERG tail current amplitude at 7 second (TL7); 10 uM; hERG stably expressed in CHO cells

Row | SMILES | % change@TL7@10 uM [%]
3 | O=C(O)c1cc2ccc(CNc3ccc(N4CCOCC4)c(Br)c3)cc2o1 [Example 98] | 158
4 | FC(F)(F)c1ccc(NCc2ccc3c(C(F)(F)F)c(-c4nnn[nH]4)oc3c2)cc1Cl [Example 61] | 47
5 | CC(Nc1ccc2c(c1)OC(F)(F)O2)c1ccc2oc(-c3nnn[nH]3)cc2c1 (centres unmarked) [Example 83] | 36
6 | Fc1ccc(NCc2ccc3cc(-c4nn[nH]n4)oc3c2)cc1CC(F)(F)F [Example 58] | 71
7 | O=C(O)c1cc2ccc(CNc3ccc(OC(F)(F)F)c(Cl)c3)cc2o1 [Example 88] | 274
8 | CCCc1c(C)cc(NCc2cc3oc(-c4nnn[nH]4)cc3cc2Cl)cc1Cl [Example 220] | 148
9 | O=C(O)c1cc2ccc(CNc3ccc(OC(F)(F)F)c(C(F)(F)F)c3)cc2o1 [Example 92] | 215
10 | CCCc1ccc(NCc2ccc3oc(-c4nnn[nH]4)cc3c2)cc1C [Example 80] | 83
11 | Fc1ccc(NCc2cc3oc(-c4nnn[nH]4)cc3cc2Cl)cc1CC(F)(F)F [Example 221] | 81
12 | Cc1cc2cc(NCc3cc4oc(-c5nnn[nH]5)cc4cc3Cl)cc(Cl)c2o1 [Example 188] | 108
13 | COc1ccc(NCc2ccc3cc(C(=O)O)oc3c2)cc1Cl [Example 115] | 41
14 | CCCc1ccc(NCc2ccc3cc(C(=O)O)oc3c2)cc1Cl [Example 93] | 212
15 | Fc1cc2cc(-c3nnn[nH]3)oc2cc1CNc1cc(C(F)(F)F)c(Br)c(C(F)(F)F)c1 [Example 159] | 388
16 | O=C(O)c1cc2ccc(CNc3cc(Cl)c(F)c(C(F)(F)F)c3)cc2o1 [Example 110] | 76
17 | CCCc1ccc(NCc2ccc3oc(-c4nnn[nH]4)cc3c2)cc1F [Example 79] | 101
18 | Cc1nc2cc(NCc3ccc4cc(C(=O)O)oc4c3)ccc2s1 [Example 114] | 45
19 | CCCc1ccc(NCc2ccc3oc(C(=O)O)cc3c2)cc1C(F)(F)F [Example 122] | 184
20 | CCCc1ccc(NC(C)c2ccc3oc(-c4nnn[nH]4)cc3c2)cc1Cl (centres unmarked) [Example 84] | 29
21 | O=C(O)c1cc2ccc(CNc3ccc(SC(F)(F)F)c(C(F)(F)F)c3)cc2o1 [Example 91] | 226
22 | Cc1nsc2ccc(NCc3ccc4cc(-c5nn[nH]n5)oc4c3)cc12 [Example 209] | 137
23 | CC(C)Oc1ccc(NCc2ccc3c(C(F)(F)F)c(-c4nnn[nH]4)oc3c2)cc1C(F)(F)F [Example 57] | 76
24 | FC(F)Oc1ccc(NCc2cc3oc(-c4nnn[nH]4)cc3cc2Cl)cc1C(F)(F)F [Example 25] | 269
25 | O=C(O)c1cc2ccc(CNc3ccc(S(F)(F)(F)(F)F)cc3)cc2o1 [Example 99] | 157
26 | CC(C)Oc1ccc(NCc2cc3oc(-c4nnn[nH]4)cc3cc2Cl)cc1C(F)(F)F [Example 18] | 409
27 | CC(C)c1ccc(NCc2cc3oc(-c4nnn[nH]4)cc3cc2F)cc1Br [Example 160] | 347
28 | Cc1cc(NCc2cc3oc(-c4nnn[nH]4)cc3cc2F)cc(C(F)(F)F)c1 [Example 195] | 249
29 | FC(F)(F)c1cc(NCc2cc3cc(-c4nnn[nH]4)oc3cc2Cl)cc(C(F)(F)F)c1Br [Example 137] | 166

Row | SMILES | % change@TL7@10 uM [%]
30 | N#CCOc1ccc(NCc2ccc3cc(-c4nnn[nH]4)oc3c2Cl)cc1C(F)(F)F [Example 210] | 134
31 | Clc1cc(NCc2ccc3cc(-c4nn[nH]n4)oc3c2)cc(Cl)c1Cl [Example 19] | 394
32 | O=C(O)c1cc2ccc(CNc3cc(C(F)(F)F)cc(C(F)(F)F)c3)cc2o1 [Example 116] | 31
33 | Fc1ccc(NCc2cc3oc(-c4nnn[nH]4)cc3cc2Cl)cc1OC(F)(F)F [Example 9] | 78
34 | FC(F)(F)Oc1cc(Cl)cc(NCc2ccc3oc(-c4nnn[nH]4)cc3c2)c1 [Example 75] | 123
35 | O=C(O)c1cc2cc(F)c(CNc3cc(Cl)c(Cl)c(Cl)c3)cc2o1 [Example 232] | 247
36 | FC(F)(F)Oc1ccc(NCc2ccc3oc(-c4nnn[nH]4)cc3c2)cc1Cl [Example 65] | 284
37 | O=C(O)c1cc2ccc(CNc3cccc(N4CCOCC4)c3)cc2o1 [Example 109] | 81
38 | Fc1cc2cc(-c3nnn[nH]3)oc2cc1CNc1ccc(OCC(F)(F)F)c(C(F)(F)F)c1 [Example 168] | 240
39 | CCOc1ccc(NCc2cc3oc(-c4nnn[nH]4)cc3cc2F)cc1C(F)(F)F [Example 161] | 288
40 | FC(F)(F)Oc1ccc(NCc2ccc3c(C(F)(F)F)c(-c4nnn[nH]4)oc3c2)cc1C(F)(F)F [Example 38] | 164
41 | CCCc1ccc(NCc2ccc3oc(-c4nnn[nH]4)cc3c2)cc1Cl [Example 71] | 193
42 | Fc1cc2cc(-c3nnn[nH]3)oc2cc1CNc1ccc(Cl)c(C(F)(F)F)c1 [Example 150] | 218
43 | CCOc1ccc(NCc2cc3oc(-c4nnn[nH]4)cc3cc2Br)cc1C(F)(F)F [Example 178] | 262
44 | N#Cc1cc(NCc2ccc3cc(-c4nnn[nH]4)oc3c2Cl)ccc1OC(F)F [Example 202] | 174
45 | FC(F)(F)Sc1ccc(NCc2ccc3oc(-c4nnn[nH]4)cc3c2)cc1Cl [Example 64] | 348
46 | O=C(O)c1cc2ccc(CNc3ccc(C(F)(F)F)cn3)cc2o1 [Example 112] | 53
47 | N#CCOc1ccc(NCc2cc3oc(-c4nnn[nH]4)cc3cc2Cl)cc1C(F)(F)F [Example 29] | 258
48 | FC(F)(F)COc1ccc(NCc2cc3oc(-c4nnn[nH]4)cc3cc2Cl)cc1C(F)(F)F [Example 22] | 328
49 | CCOc1ccc(NCc2cc3oc(-c4nnn[nH]4)cc3cc2Cl)cc1Cl [Example 217] | 116
50 | Fc1cc2oc(-c3nnn[nH]3)cc2cc1CNc1ccc(Cl)c(Cl)c1 [Example 129] | 154
51 | FC(F)(F)COc1ccc(NCc2ccc3cc(-c4nnn[nH]4)oc3c2Cl)cc1C(F)(F)F [Example 187] | 230
52 | Fc1cc2cc(-c3nnn[nH]3)oc2cc1CNc1ccc(OCC(F)(F)F)c(Cl)c1 [Example 205] | 222
53 | CCOc1ccc(NCc2ccc3cc(-c4nn[nH]n4)oc3c2)cc1Br [Example 172] | 284
54 | FC(F)(F)Oc1ccc(NCc2ccc3cc(-c4nn[nH]n4)oc3c2)cc1Br [Example 37, N-((2-(2H-tetrazol-5-yl)benzofuran-6-yl)methyl)-3-bromo-4-(trifluoromethoxy)aniline] | 170
55 | FC(F)(F)COc1ccc(NCc2cc3oc(-c4nnn[nH]4)cc3cc2Br)cc1C(F)(F)F [Example 164] | 308
56 | Cc1cc2cc(-c3nnn[nH]3)oc2cc1CNc1ccc(OCC(F)(F)F)c(C(F)(F)F)c1 [Example 170] | 299

Source: US9255093B2, “Polycyclic HERG activators” (NOVARTIS AG, priority 2014, dated 2016)
